# Data from the OligoGym collection.
# After the bases stand the sugars from the 5' end (letter, count) and the backbone: PS all phosphorothioate, else s phosphorothioate and o phosphodiester by linkage. Methylation of C is not given here. l = locked nucleic acid (LNA); d = 2'-deoxy (DNA)
# Target: SNHG14
# Conditions: ASO
Sequence,"target mRNA inhibition (Human Neuronal Cell, 7.5 µM)","target mRNA inhibition (Human Neuronal Cell, 0.2 µM)","target mRNA inhibition (Human Neuronal Cell, 1 µM)",further results
"GTTTCCATCTACTATTAAT (sugars ldldddddddddddldlll, PS)",44%,,,
"CTACACATCTTGTATAC (sugars l3 d11 l3, PS)",,40%,52%,
"ATCATTCTCAACAATTAAA (sugars l1 d1 l4 d6 l7, PS)",13%,,,
"TTTATCAATATCTTCTCA (sugars lllddlddddddldldll, PS)",37%,,,
"TTGATTCCACCATTAA (sugars l3 d10 l3, PS)",,49%,28%,
"TTATAGCCATTCTATCT (sugars ldlddddddddlldlll, PS)",43%,,,
"ATTTTTTTCTTACTATCTTC (sugars lldlddddddddddlddlll, PS)",57%,,,
"AAAATTATTTATACACCATC (sugars lldllldddddddlddllll, PS)",52%,,,
"ATCTCAACTACCATTT (sugars l4 d10 l2, PS)",,67%,67%,
"CCATTTATTTCCATTTATT (sugars llddlddddddddldddll, PS)",61%,,,
"GCTTCATATTTCTCCA (sugars l2 d11 l3, PS)",,,63%,
"GAAAATCTCAACTACCATT (sugars l5 d12 l2, PS)",60%,,,
"TATACCTTTCTTTAACCCTT (sugars ldddlddddddddddlddll, PS)",54%,,,
"CTTGTCAAATCATTTCT (sugars l4 d11 l2, PS)",,47%,41%,
"TGTTTATACCCTTTCCAA (sugars lldlddddddddddldll, PS)",57%,,,
"ACATGTCCCTTTATAT (sugars l3 d10 l3, PS)",,1%,-13%,"target mRNA inhibition (Human Neuronal Cell, 5 µM): 6%; target mRNA inhibition (Mouse Primary Neuronal Cell, 0.005 µM): 88.2%"
"TTTACACTTAATTATACTTC (sugars lddldldddddddlldllll, PS)",36%,,,
"TCCATTTATTTCCATTTATT (sugars lldldldddddddddddlll, PS)",55%,,,
"GATCATTCTCAACAATT (sugars l5 d6 l1 d1 l4, PS)",0%,,,
"ACATGTCCCTTTATAT (sugars l2 d12 l2, PS)",,-9%,-2%,"target mRNA inhibition (Human Neuronal Cell, 5 µM): 15%"
"GATCATTCTCAACAATTAA (sugars lldllddddddddlldlll, PS)",28%,,,
"ACTCTTTAGATTCATC (sugars l2 d10 l4, PS)",,53%,44%,
"AAAATTATTTATACACCATC (sugars ldldllddddddddlldlll, PS)",59%,,,

Sequence,"target mRNA inhibition (Human Neuronal Cell, 7.5 µM)","target mRNA inhibition (Human Neuronal Cell, 0.2 µM)","target mRNA inhibition (Human Neuronal Cell, 1 µM)",further results
"TACATTATTATTTAACC (sugars l4 d11 l2, PS)",,11%,6%,
"CCCACCAAAGGATATATT (sugars l3 d12 l3, PS)",,-28%,33%,"target mRNA inhibition (Human Neuronal Cell, 5 µM): 16%"
"TCCATTTATTTCCATTTATT (sugars llddlddddddddldlddll, PS)",59%,,,
"TTGATTCAATTCCCTTA (sugars lldddddddddldldll, PS)",61%,,,
"CTTTCCAATGAATCTA (sugars l2 d10 l4, PS)",,39%,55%,
"TAAAATTATTTATACACCAT (sugars ldldllddddddddldllll, PS)",45%,,,
"TCAAGAATTCTCTCCTT (sugars l2 d11 l4, PS)",,47%,51%,
"AGCAACATTATTAACCACC (sugars l2 d11 l1 d3 l2, PS)",48%,,,
"TTATAGCCATTCTATCT (sugars lddldddddddldldll, PS)",25%,,,
"GCACATTCTTTCTATACC (sugars l1 d3 l1 d11 l2, PS)",54%,,,
"GTTTCCATCTACTATTAA (sugars ldddldddddddldllll, PS)",62%,,,
"TTTACACTTAATTATACTTC (sugars ldlllddddddddlllddll, PS)",48%,,,
"ATATTGATTCAATTCCC (sugars ldldldddddddldlll, PS)",70%,,,
"TATCTTTCCATTTATTTCC (sugars lddddldddddddddldll, PS)",52%,,,
"ATATTGATTCAATTCCC (sugars l2 d9 l2 d1 l3, PS)",66%,,,
"TAAAATTATTTATACACCA (sugars ldddllddddddllddlll, PS)",55%,,,
"TGAAAATCTCAACTACCAT (sugars lldlldddddddlddldll, PS)",46%,,,
"ATGAAACTATTACTCC (sugars l2 d10 l4, PS)",,18%,35%,
"ATTTATTTCCATTTATTTTC (sugars ldllddddddddddlddlll, PS)",60%,,,
"TTATAGCCATTCTATCT (sugars l4 d11 l2, PS)",,63%,69%,
"AGTTCACTACTATTAC (sugars l3 d10 l3, PS)",,52%,63%,
"ATCTTCAAGAATTCTC (sugars l3 d10 l3, PS)",,44%,48%,
"TTATTTCCATTTATTTTCA (sugars ldldlddddddddllldll, PS)",62%,,,

Sequence,"target mRNA inhibition (Human Neuronal Cell, 7.5 µM)","target mRNA inhibition (Human Neuronal Cell, 0.2 µM)","target mRNA inhibition (Human Neuronal Cell, 1 µM)",further results
"TATTGATTCAATTCCCT (sugars lddllddddddddldll, PS)",64%,,,
"CTGTATACACCATCCCA (sugars lddddddddddldldll, PS)",49%,,,
"CCAAGATAATCATCAT (sugars l3 d10 l3, PS)",,41%,42%,
"ACTGTTTATACCCTTTCC (sugars lddldlddddddddddll, PS)",53%,,,
"AGTTCTACTATACTTTC (sugars l1 d10 l6, PS)",47%,,,
"CTGTTTATACCCTTTCCA (sugars ldldldddddddddddll, PS)",56%,,,
"TATCTTTCCATTTATTTCCA (sugars lddddlddddddddllddll, PS)",50%,,,
"TTATACCTTTCTTTAACCCT (sugars lddddlddddddddldddll, PS)",58%,,,
"CAACATTATTAACCACCTT (sugars ldldddddddddddldlll, PS)",52%,,,
"CTGTATACACCATCCCA (sugars l1 d14 l2, PS)",49%,,,
"TTCTGTATACACCATCC (sugars l1 d2 l1 d11 l2, PS)",56%,,,
"TTTATTAGATTACTCC (sugars l2 d10 l4, PS)",,24%,17%,
"TATAAGCTTACCTCAT (sugars l3 d10 l3, PS)",,50%,66%,
"TATTGATTCAATTCCCT (sugars l2 d11 l4, PS)",,58%,71%,
"AGCTTTTAACCAGAGTGGC (sugars l1 d16 l2, PS)",56%,,,
"AAATCTCAACTACCATTTTT (sugars lldddllddddddlddllll, PS)",29%,,,
"GCATTCAACCCTAATCA (sugars l3 d12 l2, PS)",,39%,50%,
"TAGCCTACTTTAATAT (sugars l4 d10 l2, PS)",,25%,11%,
"CTCAGACATCTCAATA (sugars l4 d10 l2, PS)",,45%,43%,
"CTGTTTATACCCTTTCCA (sugars l1 d15 l2, PS)",47%,,,
"CCATTTATTTCCATTTATT (sugars lddlllddddddldddlll, PS)",54%,,,
"CTGTATACACCATCCCA (sugars lddldddddddddldll, PS)",49%,,,
"AAATTATTTATACACCATCA (sugars l4 d10 l1 d2 l3, PS)",66%,,,

Sequence,"target mRNA inhibition (Human Neuronal Cell, 7.5 µM)","target mRNA inhibition (Human Neuronal Cell, 0.2 µM)","target mRNA inhibition (Human Neuronal Cell, 1 µM)",further results
"GTTTATACCCTTTCCAAT (sugars l1 d1 l1 d13 l2, PS)",56%,,,
"TTTTTTTCTTACTATCTTCA (sugars ldlldddddddddlddldll, PS)",59%,,,
"ATCTCATGACCACCTAA (sugars l3 d11 l3, PS)",,54%,56%,
"CCTAAAGATCCCATCAC (sugars l2 d12 l3, PS)",,34%,51%,
"GACTACATTCTCAATA (sugars l3 d10 l3, PS)",,30%,50%,
"GCACATTCTTTCTATACC (sugars l1 d1 l2 d11 l3, PS)",64%,,,
"TTATAGCCATTCTATCT (sugars l2 d9 l1 d2 l3, PS)",53%,,,
"TATTGATTCAATTCCCT (sugars l2 d12 l3, PS)",59%,,,
"CTGTATACACCATCCCA (sugars l1 d2 l2 d10 l2, PS)",61%,,,
"GTTTCCATCTACTATTAA (sugars ldlllddddddddlddll, PS)",49%,,,
"TTACTCTTTGATTTCAT (sugars l3 d11 l3, PS)",,34%,34%,
"TCTCATGACCACCTAA (sugars l2 d10 l4, PS)",,39%,54%,
"TTTTTTCTTACTATCTTCAA (sugars ldldldldddddddldddll, PS)",57%,,,
"AGTTCTACTATACTTTCC (sugars l1 d13 l1 d1 l2, PS)",47%,,,
"ATCATTCTCAACAATTA (sugars l4 d11 l2, PS)",,59%,70%,
"TTTATACCTTTCTTTAACCC (sugars l1 d13 l1 d3 l2, PS)",57%,,,
"AAATTATTTATACACCATCA (sugars lllddllddddddlldddll, PS)",64%,,,
"TGCTCACTAACTACAC (sugars l3 d10 l3, PS)",,22%,9%,
"CTGTTTATACCCTTTCCA (sugars ldlddddddddddlddll, PS)",55%,,,
"TTATAGCCATTCTATCT (sugars l2 d13 l2, PS)",48%,,,
"GTTCTCTTTATTTCTTCT (sugars l2 d12 l4, PS)",,31%,42%,
